{"source": "ChEMBL document CHEMBL1158287", "about": "“Identification of ent-16 beta, 17-dihydroxykauran-19-oic acid as an anti-HIV principle and isolation of the new diterpenoids annosquamosins A and B from Annona squamosa” (J Nat Prod, 1996)", "note": "The source made the active and inactive calls. No cut-off for these calls is given here."}
{"tested_on": "Human immunodeficiency virus 1", "experiment": "Antiviral activity against HIV1 3B replication in human H9 cells up to 100 ug/mL after 3 days by p24 antigen capture assay", "type": "functional, organism-based", "conditions": "not given"}
{"smiles": "C[C@@]1(CO)CCC[C@]2(C)[C@@H]1CC[C@@]13C[C@H](CC[C@H]12)[C@](O)(CO)C3", "Activity": "inactive"}
{"smiles": "CC(=O)OC[C@]1(O)C[C@@]23CC[C@H]4[C@@](C)(CCC[C@@]4(C)C=O)[C@@H]2CC[C@H]1C3", "Activity": "inactive"}
{"smiles": "C[C@@]12CCC[C@@](C)(C=O)[C@H]1CC[C@@]13C[C@@H](CC[C@H]12)[C@](O)(CO)C3", "Activity": "inactive"}
{"smiles": "C[C@@]12CCC[C@@](C)(O)[C@H]1CC[C@@]13C[C@H](CC[C@H]12)[C@](O)(CO)C3", "Activity": "inactive"}
{"smiles": "C[C@@]12CCC[C@@](C)(O)[C@H]1CC[C@@]13C[C@H](CC[C@H]12)[C@H](C(=O)O)C3", "Activity": "inactive"}
{"smiles": "C[C@@]12CCC[C@@](C)(C(=O)O)[C@H]1CC[C@@]13C[C@H](CC[C@H]12)[C@@](O)(CO)C3", "Activity": "inactive"}
{"smiles": "C[C@@]12CCC[C@@](C)(C=O)[C@H]1CC[C@]13C[C@@H](CO)[C@@H](CC[C@H]12)C3", "Activity": "inactive"}
{"smiles": "C=C1C[C@@]23CC[C@H]4[C@@](C)(CCC[C@@]4(C)C(=O)O)[C@@H]2CC[C@@H]1C3", "Activity": "inactive"}
{"smiles": "C=C1C[C@@]23CC[C@@H]4[C@](C)(CO)CCC[C@@]4(C)[C@@H]2CC[C@H]1C3", "Activity": "inactive"}
{"smiles": "C[C@@]12CCC[C@@](C)(C(=O)O)[C@H]1CC[C@]13CC(CO)[C@@H](CC[C@H]12)C3", "note": "(mixture of isomers)", "Activity": "inactive"}
{"smiles": "C[C@@]12CCC[C@@](C)(C=O)[C@H]1CC[C@@]13C[C@H](CC[C@H]12)[C@H](C(=O)O)C3", "Activity": "inactive"}
{"smiles": "CC(=O)OC[C@@H]1C[C@@]23CC[C@H]4[C@@](C)(CCC[C@@]4(C)C(=O)O)[C@@H]2CC[C@H]1C3", "Activity": "inactive"}
{"tested_on": "not listed separately", "experiment": "Therapeutic index, ratio of inhibition of human H9 cells to EC50 for HIV1 3B", "type": "cell-based", "conditions": "not given"}
{"smiles": "C[C@@]12CCC[C@@](C)(C(=O)O)[C@H]1CC[C@@]13C[C@@H](CC[C@H]12)[C@](O)(CO)C3", "selectivity ratio": "> 5"}
{"tested_on": "Human immunodeficiency virus 1", "experiment": "Antiviral activity against HIV1 3B replication in human H9 cells after 3 days by p24 antigen capture assay", "type": "functional, organism-based", "conditions": "Human immunodeficiency virus 1, 3B, H9, 72 h", "units": {"EC50": "µg/mL"}}
{"smiles": "C[C@@]12CCC[C@@](C)(C(=O)O)[C@H]1CC[C@@]13C[C@@H](CC[C@H]12)[C@](O)(CO)C3", "EC50": 0.8}
